Legend:
Type in all cases: in vivo
Parameters in all cases: key: 0 is no effect; 10 is complete control
[1] = system: bedstraw (Galium aparine); test: Test B pre-/postemergence; details: Postemergence
Outline: (§1)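 Scored visually 0 (none) to 10 (complete control) against untreated plants after twelve to sixteen greenhouse days. Test chemicals, formulated in surfactant-containing non-phytotoxic solvent, applied to soil after planting and, separately, onto 1- to 4-leaf (2–18 cm) plants.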

[2] = system: blackgrass (Alopecurus myosuroides); test: Test B pre-/postemergence
Outline: as §1

[3] = system: broadleaf signalgrass (Brachiaria decumbens); test: Test B pre-/postemergence
Outline: as §1

[4] = system: cocklebur (Xanthium strumarium); test: Test B pre-/postemergence
Outline: as §1

corn (Zea mays) = test: Test B pre-/postemergence
Outline: as §1

[5] = system: crabgrass (Digitaria sanguinalis); test: Test B pre-/postemergence
Outline: as §1

[6] = system: giant foxtail (Setaria faberii); test: Test B pre-/postemergence
Outline: as §1

[7] = system: momingglory (Ipomoea hederacea); test: Test B pre-/postemergence
Outline: as §1

[8] = system: pigweed (Amaranthus retroflexus); test: Test B pre-/postemergence
Outline: as §1

[9] = system: purple nutsedge (Cyperus rotundus); test: Test B pre-/postemergence; details: Preemergence
Outline: as §1

rape (Brassica napus) = test: Test B pre-/postemergence
Outline: as §1

soybean (Glycine max) = test: Test B pre-/postemergence
Outline: as §1

[10] = system: sugar beet (Beta vulgaris); test: Test B pre-/postemergence
Outline: as §1

[11] = system: velvetleaf (Abutilon theophrasti); test: Test B pre-/postemergence
Outline: as §1

[12] = system: wheat (Triticum aestivum); test: Test B pre-/postemergence
Outline: as §1

wild oat (Avena fatua) = test: Test B pre-/postemergence
Outline: as §1

[13] = system: bamyardgrass (Echinochloa crus-galli); test: Test B flood test
Outline: (§2)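 Flood test on plants grown to the 2-leaf stage; treated plants kept in greenhouse twelve to sixteen days, then visually rated against controls on a 0 (no effect) to 10 (complete control) scale.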

[14] = system: duck salad (Heteranthera limosa); test: Test B flood test
Outline: as §2

rice (Oryza sativa) = test: Test B flood test
Outline: as §2

[15] = system: smallflower flatsedge (Cyperus difformis); test: Test B flood test
Outline: as §2

[16] = Preemergence, Rate 62 g/ha, scale of 0 to 10
[17] = Rate 62 g/ha, Postemergence (flood test)
[18] = Rate 125 g/ha, Postemergence section (flood test species)
[19] = Rate 250 g/ha, Postemergence (flood test species)

O=C(c1cccc(C(F)(F)F)c1)c1ccnc(-c2ccc(F)cc2F)n1 [Compound 76]
0: Bedstraw plant response rating ([1]; Rate 62 g/ha) | Bedstraw plant response rating ([1]; Rate 125 g/ha) | Plant response rating, Bedstraw ([1]; Rate 250 g/ha) | Plant response rating, Blackgrass [2, 16] | Blackgrass plant response rating ([2]; Rate 62 g/ha, Postemergence) | Blackgrass plant response rating ([2]; Rate 125 g/ha, Postemergence) | Plant response rating, Blackgrass ([2]; Rate 125 g/ha, Preemergence) | Plant response rating, Blackgrass ([2]; Rate 250 g/ha, Postemergence) | Plant response rating, Blackgrass ([2]; Rate 250 g/ha, Preemergence) | B. signalgrass plant response rating ([3]; Rate 62 g/ha, Postemergence) | B. signalgrass plant response rating ([3]; Rate 62 g/ha, Preemergence) | B. signalgrass plant response rating ([3]; Rate 125 g/ha, Postemergence) | Plant response rating, B. signalgrass ([3]; Rate 125 g/ha, Preemergence) | Plant response rating, B. signalgrass ([3]; Rate 250 g/ha, Postemergence) | Plant response rating, B. signalgrass ([3]; Rate 250 g/ha, Preemergence) | Plant response rating, Cocklebur [4, 16] | Plant response rating, Cocklebur ([4]; Rate 125 g/ha, Preemergence) | Plant response rating, Cocklebur ([4]; Rate 250 g/ha, Preemergence) | Plant response rating, Corn (corn (Zea mays); [16]) | Plant response rating, Corn (corn (Zea mays); Rate 125 g/ha, Preemergence) | Plant response rating, Corn (corn (Zea mays); Rate 250 g/ha, Preemergence) | Plant response rating, Crabgrass [5, 16] | Crabgrass plant response rating ([5]; Rate 62 g/ha, Postemergence) | Crabgrass plant response rating ([5]; Rate 125 g/ha, Postemergence) | Plant response rating, Crabgrass ([5]; Rate 125 g/ha, Preemergence) | Plant response rating, Crabgrass ([5]; Rate 250 g/ha, Preemergence) | Plant response rating, Giant foxtail [6, 16] | Giant foxtail plant response rating ([6]; Rate 62 g/ha, Postemergence) | Giant foxtail plant response rating ([6]; Rate 125 g/ha, Postemergence) | Plant response rating, Giant foxtail ([6]; Rate 125 g/ha, Preemergence) | Plant response rating, Giant foxtail ([6]; Rate 250 g/ha, Preemergence) | Plant response rating, Morningglory [7, 16] | Morningglory plant response rating ([7]; Rate 62 g/ha, Postemergence) | Morningglory plant response rating ([7]; Rate 125 g/ha, Postemergence) | Plant response rating, Morningglory ([7]; Rate 125 g/ha, Preemergence) | Plant response rating, Morningglory ([7]; Rate 250 g/ha, Preemergence) | Plant response rating, Redroot pigweed [8, 16] | Plant response rating, Redroot pigweed ([8]; Rate 125 g/ha, Preemergence) | Plant response rating, Redroot pigweed ([8]; Rate 250 g/ha, Preemergence) | Plant response rating, Nutsedge ([9]; Rate 62 g/ha, scale of 0 to 10) | Plant response rating, Nutsedge ([9]; Rate 125 g/ha) | Plant response rating, Rape (rape (Brassica napus); [16]) | Plant response rating, Rape (rape (Brassica napus); Rate 125 g/ha, Preemergence) | Plant response rating, Rape (rape (Brassica napus); Rate 250 g/ha, Preemergence) | Plant response rating, Soybean (soybean (Glycine max); [16]) | Soybean plant response rating (soybean (Glycine max); Rate 62 g/ha, Postemergence) | Soybean plant response rating (soybean (Glycine max); Rate 125 g/ha, Postemergence) | Plant response rating, Soybean (soybean (Glycine max); Rate 125 g/ha, Preemergence) | Plant response rating, Soybean (soybean (Glycine max); Rate 250 g/ha, Preemergence) | Plant response rating, Sugarbeets [10, 16] | Plant response rating, Sugarbeets ([10]; Rate 125 g/ha, Preemergence) | Plant response rating, Sugarbeets ([10]; Rate 250 g/ha, Preemergence) | Plant response rating, Velvetleaf [11, 16] | Velvetleaf plant response rating ([11]; Rate 62 g/ha, Postemergence) | Plant response rating, Velvetleaf ([11]; Rate 125 g/ha, Preemergence) | Plant response rating, Velvetleaf ([11]; Rate 250 g/ha, Preemergence) | Plant response rating, Wheat [12, 16] | Wheat plant response rating ([12]; Rate 62 g/ha, Postemergence) | Wheat plant response rating ([12]; Rate 125 g/ha, Postemergence) | Plant response rating, Wheat ([12]; Rate 125 g/ha, Preemergence) | Plant response rating, Wheat ([12]; Rate 250 g/ha, Postemergence) | Plant response rating, Wheat ([12]; Rate 250 g/ha, Preemergence) | Plant response rating, Wild oats (wild oat (Avena fatua); [16]) | Wild oats plant response rating (wild oat (Avena fatua); Rate 62 g/ha, Postemergence) | Wild oats plant response rating (wild oat (Avena fatua); Rate 125 g/ha, Postemergence) | Plant response rating, Wild oats (wild oat (Avena fatua); Rate 125 g/ha, Preemergence) | Plant response rating, Wild oats (wild oat (Avena fatua); Rate 250 g/ha, Postemergence) | Plant response rating, Wild oats (wild oat (Avena fatua); Rate 250 g/ha, Preemergence) | Barnyardgrass plant response rating [13, 17] | Barnyardgrass plant response rating [13, 18] | Plant response rating, Barnyardgrass [13, 19] | Ducksalad plant response rating [14, 17] | Ducksalad plant response rating [14, 18] | Plant response rating, Ducksalad [14, 19] | Rice plant response rating (rice (Oryza sativa); [17]) | Rice plant response rating (rice (Oryza sativa); [18]) | Plant response rating, Rice (rice (Oryza sativa); [19]) | S. Flatsedge plant response rating [15, 17] | S. Flatsedge plant response rating [15, 18] | Plant response rating, S. Flatsedge [15, 19]
2: Plant response rating, Redroot pigweed ([8]; Rate 250 g/ha, Postemergence) | Rape plant response rating (rape (Brassica napus); Rate 125 g/ha, Postemergence) | Plant response rating, Rape (rape (Brassica napus); Rate 250 g/ha, Postemergence) | Sugarbeets plant response rating ([10]; Rate 125 g/ha, Postemergence)
1: Cocklebur plant response rating ([4]; Rate 62 g/ha, Postemergence) | Corn plant response rating (corn (Zea mays); Rate 62 g/ha, Postemergence) | Corn plant response rating (corn (Zea mays); Rate 125 g/ha, Postemergence) | Plant response rating, Corn (corn (Zea mays); Rate 250 g/ha, Postemergence) | Plant response rating, Crabgrass ([5]; Rate 250 g/ha, Postemergence) | Plant response rating, Giant foxtail ([6]; Rate 250 g/ha, Postemergence) | Plant response rating, Morningglory ([7]; Rate 250 g/ha, Postemergence) | Redroot pigweed plant response rating ([8]; Rate 62 g/ha, Postemergence) | Redroot pigweed plant response rating ([8]; Rate 125 g/ha, Postemergence) | Rape plant response rating (rape (Brassica napus); Rate 62 g/ha, Postemergence) | Plant response rating, Soybean (soybean (Glycine max); Rate 250 g/ha, Postemergence) | Sugarbeets plant response rating ([10]; Rate 62 g/ha, Postemergence) | Velvetleaf plant response rating ([11]; Rate 125 g/ha, Postemergence) | Plant response rating, Velvetleaf ([11]; Rate 250 g/ha, Postemergence)
4: Plant response rating, Cocklebur ([4]; Rate 250 g/ha, Postemergence)
3: Cocklebur plant response rating ([4]; Rate 125 g/ha, Postemergence) | Plant response rating, Sugarbeets ([10]; Rate 250 g/ha, Postemergence)
